Tests used:
[1] = AUC (0-infinity) in Wistar Han rat at 2 mg/kg,iv administrated for 24 hrs by LC-MS/MS analysis; format: ADME, organism-based; design: time 24 hrs, dose 2 mg/kg, route iv; conditions: in vivo
[2] = Drug concentration in M22-induced Wistar rat plasma at 12.5 to 100 micromol/kg,po measured upto 24 hrs by LC-MS/MS analysis; format: ADME, cell-free; conditions: dose 12.5-100 µmol/kg
[3] = Oral bioavailability in Wistar Han rat at 5 mg/kg administrated for 24 hrs by LC-MS/MS analysis; format: ADME, organism-based; conditions: in vivo
[4] = Cmax in Wistar Han rat at 5 mg/kg,po administrated for 24 hrs by LC-MS/MS analysis; format: ADME, organism-based; design: dose 5 mg/kg, time 24 hrs, route po; conditions: in vivo
[5] = Tmax in Wistar Han rat at 5 mg/kg,po administrated for 24 hrs by LC-MS/MS analysis; format: ADME, organism-based; conditions: in vivo
[6] = Drug concentration in M22-induced Wistar rat plasma at 12.5 micromol/kg,po measured upto 24 hrs by LC-MS/MS analysis; format: ADME, cell-free; conditions: dose 12.5 µmol/kg
[7] = Volume of distribution at steady state in Wistar Han rat at 2 mg/kg,iv administrated for 24 hrs by LC-MS/MS analysis; format: ADME, organism-based; conditions: in vivo, read-out: Vdss
[8] = AUC (0-infinity) in Wistar Han rat at 5 mg/kg,po administrated for 24 hrs by LC-MS/MS analysis; format: ADME, organism-based; design: time 24 hrs, dose 5 mg/kg, route po; conditions: in vivo

Row | SMILES | AUC(0-inf) [1] [ng·h/mL] | Drug uptake [2] | bioavailability [3] [%] | Cmax [4] [ng/mL] | Tmax [5] [h] | Drug uptake [6] | Vd [7] [L/kg] | AUC(0-inf) [8] [ng·h/mL]
1 | CC(=O)N1c2cnc(NC(=O)O[C@@H](C)C(C)(C)C)nc2C2(CCC(F)(F)CC2)C1(C)C | 617 | Active | 47 | 145 | 1 | Not Active | 8.76 | 709
2 | CC(=O)N1CCC(C)(c2ccccc2)c2cc(NC(=O)CCc3cccc(C(F)(F)F)c3)ccc21 (racemic) | 694 |  | 8 | 52 | 1 |  | 2.41 | 141
